Test results taken from patent US11213527B2, “Inhibitory effect of low molecular weight compound on cancer and fibrosis” (NATIONAL UNIVERSITY CORPORATION TOTTORI UNIVERSITY, priority 2014, dated 2022).

What was measured:
[1] = test system: CD44-positive HuH7 cells; assay: Liver cancer model mice, CD44-positive HuH7 cells subcutaneously transplanted; format: in vivo; conditions: for change in the body weight: 50 mg/kg IC-2 or 30 mg/kg 5-FU intraperitoneally every 3 days
Method: CD44-positive HuH7 cells were subcutaneously transplanted into mice. The mice were then divided into 3 groups (DMSO group: 5 mice; 5-FU group: 4 mice; and IC-2 group: 4 mice). Subsequently, 30 mg/kg of 5-FU, 50 mg/kg of IC-2, or DMSO (as a control), which was a solvent for each chemical, was intraperitoneally administered every 3 days. The body weight and the tumor length and width of each mouse were measured every 3 days. The tumor volume was calculated by using the following equation: Tumor volume=Length×(Width)^2×0.5. The volume at Day 0 was used to normalize each tumor volume, and then a graph was created. To sufficiently evaluate an effect of 5-FU, the dosage that was usually […] in research articles was doubled to set a 5-FU dose. The IC-2 concentration corresponding to a concentration at which a Wnt/β-catenin signal was inhibited in vitro was calculated. Then, the concentration was doubled to set an IC-2 dose.

[2] = test system: liver cancer cell line HepG2 (CD133); assay: FACS analysis of CD133-expressing cells; format: cell-based, human; conditions: 0.5 μM 5-FU, 50 μM IC-2, two days, DMSO 57.1%
Method: (§1) A liver cancer cell line HepG2 was seeded at 1.5×10^6 cells/dish on 10-cm dishes. Next, the cells were cultured at 37° C. and 5% CO2. After 24 hours, 1% DSMO, 0.5 μM 5-FU, or 50 μM IC-2 was added thereto and the cells were further incubated. Then, the cells were harvested at two days after the chemical treatment. Meanwhile, the cells were blocked in 0.5% BSA/0.5% FBS/2 mM EDTA/PBS. Subsequently, 50 μL of an anti-human CD133 monoclonal antibody (Miltenyi Biotec) was added to 500 μL of a cell suspension and the resulting mixture was resuspended and incubated at 4° C. for 10 min to carry out a primary antibody reaction. After the primary antibody reaction, the cells were washed 3 times with 1 mL of PBS. After 1.0 μg of an Alexa 488-labeled goat anti-mouse IgG antibody (Life Technologies Corp., Carlsbad, Calif., USA) was added, the mixture was resuspended and a secondary antibody reaction was performed in a dark room for 10 min at 4° C. Thereafter, the cells were washed twice with 5% FBS/2 mM EDTA/PBS and once with 5% FBS/2 mM EDTA/DEME. Next, the cells were resuspended in 500 μL of 5% FBS/2 mM EDTA/PBS. Then, 1 μg/mL of propidium iodide was added thereto. After that, the mixture was made to pass through a tube with a 40-μm mesh filter. Finally, a Beckman Coulter-MoFlo XDP was used to analyze CD133-expressing cells.

[3] = test system: liver cancer cell line HepG2 (EpCAM); assay: FACS analysis of EpCAM-expressing cells; format: cell-based, human; conditions: 0.5 μM 5-FU, 50 μM IC-2, two days, DMSO 76.2%
Method: as §1, with “Subsequently, 0.3” for “Subsequently, 50”, “anti-human EpCAM” for “anti-human CD133”, “antibody (Cell Signaling Technology Inc., Danvers, Mass., USA)” for “antibody (Miltenyi Biotec)”, “analyze EpCAM-expressing” for “analyze CD133-expressing”

[4] = test system: liver cancer cell line HLF (CD90); assay: FACS analysis of CD90-expressing cells; format: cell-based, human; conditions: 0.5 μM 5-FU, 50 μM IC-2, two days, DMSO 21.8%
Method: A liver cancer cell line HLF was seeded at 1.5×10^6 cells/dish on 10-cm dishes. Next, the cells were cultured at 37° C. and 5% CO2. After 24 hours, 1% DSMO, 0.5 μM 5-FU, or 50 μM IC-2 was added thereto and the cells were further incubated. Two days after the chemical treatment, the cells were harvested. Then, the cells were blocked in 0.5% BSA/0.5% FBS/2 mM EDTA/PBS. Subsequently, 5 μL of an APC-labeled mouse anti-human CD90 antibody (BD Biosciences, San Jose, Calif., USA) was added to 500 μL of a cell suspension and the resulting mixture was resuspended and incubated at 4° C. for 10 min to carry out a primary antibody reaction. After the antibody reaction, the cells were washed twice with 0.5% FBS/2 mM EDTA/PBS and once with 5% FBS/2 mM EDTA/DMEM. Next, the cells were resuspended in 500 μL of 5% FBS/2 mM EDTA/PBS. Then, 1 μg/mL of propidium iodide was added thereto. After that, the mixture was made to pass through a tube with a 40-μm mesh filter. Finally, a Beckman Coulter-MoFlo XDP was used to analyze CD90-expressing cells. […] The concentration of IC-2 was determined on the basis of a concentration at which a Wnt/β-catenin signal was inhibited.

[5] = test system: CD44-expressing HSC2 cells; assay: Inhibitory effect on cancer stem cells in squamous cell carcinoma (CD44 FACS); format: cell-based, human; conditions: 5-FU 0.5 μM, IC-2 25 μM, PN-3-13 7.5 μM, HC-1 50 μM, 48 hours, no treatment 83.9%
Method: First, 5×10^5 of HSC2 cells were plated on a 10-cm dish. After 24 hours, the cells were treated with 5-FU (0.5 μM), IC-2 (25 μM), PN-3-13 (7.5 μM), or HC-1 (50 μM). Also, some of the cells were prepared without low-molecular-weight compound treatment (0 μM). After additional 48 hours, the cells were harvested. An anti-human CD44 antibody (Abcam Ltd., Cambridge, UK) was used as a primary antibody and an Alexa 488-labeled goat anti-mouse IgG antibody (Life Technologies Corp., Carlsbad, Calif., USA) was then used. After that, analysis was performed by using a cell sorter, BD bioscience FACS Aria (BD Biosciences, CA, USA). Note that the concentration of each low-molecular-weight compound was determined on the basis of the IC50 concentration at 48 hours in a WST assay.

Row | SMILES | change in the body weight [1] | proportion of the CD133-expressing cells [2] [%] | proportion of the EpCAM-expressing cells [3] [%] | proportion of the CD90-expressing cells [4] [%] | proportion of CD44-expressing cells [5] [%] | therapeutic effect of treating a malignant tumor (tumor volume) ([1]; 50 mg/kg IC-2 vs 30 mg/kg 5-FU intraperitoneally every 3 days)
1 | O=c1[nH]cc(F)c(=O)[nH]1 [5-FU, reference compound] | no observable change in the body weight | 33.3 | 81.4 | 24.1 | 83.3 | –
2 | O=C1[C@H](Cc2ccccc2)N2C(=O)CCN(C(=O)NCc3ccccc3)[C@H]2CN1Cc1cccc2ccccc12 [IC-2] | no observable change in the body weight | 1.45 | 51.1 | 13.5 | 71.4 | significantly higher therapeutic effect of treating a malignant tumor than that of 5-FU
